23 molecules from patent US6531610B1 (Abbott Laboratories, priority 1989, dated 2003) can be followed below.

For the first assay, the system named is HIV-13B in MT4 cells. Briefly: Antiviral activity: inhibition of the cytopathic effect of HIV in MT4 cells. Format: cell-based, HIV-1. As to conditions: Human immunodeficiency virus 1, MT4; read-out: IC50. On the technique in general: Damage to the host cells serves as the signal in cytopathic effect assays.
The term IC50 denotes the concentration at which inhibition is half-maximal. On to `CC(C)c1nc(CN(C)C(=O)N[C@H](C(=O)N[C@@H](Cc2ccccc2)C[C@H](O)[C@H](Cc2ccccc2)NC(=O)OCc2cncs2)C(C)C)cs1` [Example 1, (2S,3S,5S)-5-(N-(N-((N-Methyl-N-((2-isopropyl-4-thiazolyl)methyl)amino)carbonyl)valinyl)amino)-2-(N-((5-thiazolyl)methoxycarbonyl)amino)-1,6-diphenyl-3-hydroxyhexane], for which the IC50 is 25 to 40 nM.

For the molecule `CCN(Cc1csc(C(C)C)n1)C(=O)N[C@H](C(=O)N[C@@H](Cc1ccccc1)C[C@H](O)[C@H](Cc1ccccc1)NC(=O)OCc1cncs1)C(C)C` [Example 4, (2S,3S,5S)-5-(N-(N-((N-Ethyl-N-((2-isopropyl-4-thiazolyl)methyl)amino)carbonyl)valinyl)amino)-2-(N-((5-thiazolyl)methoxycarbonyl)amino)-1,6-diphenyl-3-hydroxyhexane], the half-maximal inhibitory concentration (IC50) was 170 to 320 nM.

Take `CC(C)c1nc(COC(=O)N[C@H](C(=O)N[C@@H](Cc2ccccc2)C[C@H](O)[C@H](Cc2ccccc2)NC(=O)OCc2cncs2)C(C)C)cs1` [Example 5, (2S,3S,5S)-5-(N-(N-((2-Isopropyl-4-thiazolyl)methoxycarbonyl)valinyl)amino)-2-(N-((5-thiazolyl)methoxycarbonyl)amino)-1,6-diphenyl-3-hydroxyhexane]: the IC50 lay within 3 to 9 nM.

For `CC(C)c1nc(COC(=O)N[C@H](C(=O)N[C@@H](Cc2ccccc2)[C@@H](O)C[C@H](Cc2ccccc2)NC(=O)OCc2cncs2)C(C)C)cs1` [Example 6, (2S,3S,5S)-2-(N-(N-((2-Isopropyl-4-thiazolyl)methoxycarbonyl)valinyl)amino)-5-(N-((5-thiazolyl)methoxycarbonyl)amino)-1,6-diphenyl-3-hydroxyhexane], the concentration for half-maximal inhibition (IC50) lay in the range of 6 to 14 nM.

Consider `CC(C)c1nc(COC(=O)N[C@@H](C)C(=O)N[C@@H](Cc2ccccc2)C[C@H](O)[C@H](Cc2ccccc2)NC(=O)OCc2cncs2)cs1` [Example 7, (2S,3S,5S)-5-(N-(N-((2-Isopropyl-4-thiazolyl)methoxycarbonyl)alaninyl)amino)-2-(N-((5-thiazolyl)methoxycarbonyl)amino)-1,6-diphenyl-3-hydroxyhexane], for which the IC50 fell in the range of 76 to 131 nM.

On to `CC(C)[C@H](NC(=O)OCc1csc(N(C)C)n1)C(=O)N[C@@H](Cc1ccccc1)[C@@H](O)C[C@H](Cc1ccccc1)NC(=O)OCc1cncs1` [Example 10, (2S,3S,5S)-2-(N-(N-((2-(N,N-Dimethylamino)-4-thiazolyl)methoxycarbonyl)valinyl)amino)-5-(N-((5-thiazolyl)methoxycarbonyl)amino)-1,6-diphenyl-3-hydroxyhexane], for which the IC50 lay within 54 to 71 nM.

With `CC(C)[C@H](NC(=O)OCc1csc(N2CCOCC2)n1)C(=O)N[C@@H](Cc1ccccc1)C[C@H](O)[C@H](Cc1ccccc1)NC(=O)OCc1cncs1` [Example 11, (2S,3S,5S)-5-(N-(N-((2-(4-Morpholinyl)-4-thiazolyl)methoxycarbonyl)valinyl)amino)-2-(N-((5-thiazolyl)methoxycarbonyl)amino)-1,6-diphenyl-3-hydroxyhexane], the IC50 lay in the range of 17 to 132 nM.

As to `CC(C)[C@H](NC(=O)OCc1csc(N2CCOCC2)n1)C(=O)N[C@@H](Cc1ccccc1)[C@@H](O)C[C@H](Cc1ccccc1)NC(=O)OCc1cncs1` [Example 12, (2S,3S,5S)-2-(N-(N-((2-(4-Morpholinyl)-4-thiazolyl)-methoxycarbonyl)valinyl)amino)-5-(N-((5-thiazolyl)-methoxycarbonyl)amino)-1,6-diphenyl-3-hydroxyhexane], the IC50 was 53 to 106 nM.

As to `CC(C)c1nc(CN(C(=O)N[C@@H](C)C(=O)N[C@@H](Cc2ccccc2)C[C@H](O)[C@H](Cc2ccccc2)NC(=O)OCc2cncs2)C2CC2)cs1` [Example 15, (2S,3S,5S)-5-(N-(N-((N-Cyclopropyl-N-((2-isopropyl-4-thiazolyl)methyl)amino)carbonyl)alaninyl)amino)-2-(N-((5-thiazolyl)methoxycarbonyl)amino)-1,6-diphenyl-3-hydroxyhexane], the IC50 was 430 to 670 nM.

With `CC(C)c1nc(CN(C(=O)N[C@H](C(=O)N[C@@H](Cc2ccccc2)C[C@H](O)[C@H](Cc2ccccc2)NC(=O)OCc2cncs2)C(C)C)C2CC2)cs1` [Example 17, (2S,3S,5S)-5-(N-(N-((N-Cyclopropyl-N-((2-isopropyl-4-thiazolyl)methyl)amino)carbonyl)valinyl)amino)-2-(N-((5-thiazolyl)methoxycarbonyl)amino)-1,6-diphenyl-3-hydroxyhexane], the IC50 fell in the range of 230 to 310 nM.

Consider `CC(C)c1nc(CN(C)C(=O)N[C@H](C(=O)N[C@@H](Cc2ccccc2)C[C@H](O)[C@H](Cc2ccccc2)NC(=O)OCc2cncs2)C(C)C)co1` [Example 18, (2S,3S,5S)-5-(N-(N-((N-Methyl-N-((2-isopropyl-4-oxazolyl)methyl)amino)carbonyl)valinyl)amino)-2-(N-((5-thiazolyl)methoxycarbonyl)amino)-1,6-diphenyl-3-hydroxyhexane], for which the IC50 lay in the range of 39 to 46 nM.

Turning to `CC(C)c1nc(CN(C)C(=O)N[C@H](C(=O)N[C@@H](Cc2ccccc2)C[C@H](O)[C@H](Cc2ccccc2)NC(=O)OCc2ccno2)C(C)C)cs1` [Example 26, (2S,3S,5S)-5-(N-(N-((N-Methyl-N-((2-isopropyl-4-thiazolyl)methyl)amino)carbonyl)valinyl)amino)-2-(N-((5-isoxazolyl)methoxycarbonyl)amino)-1,6-diphenyl-3-hydroxyhexane], the concentration for half-maximal inhibition (IC50) was 7 to 11 nM.

`CC(C)c1nc(CN(C)C(=O)N[C@H](C(=O)N[C@@H](Cc2ccccc2)C[C@H](O)[C@H](Cc2ccccc2)NC(=O)OCc2ccno2)C(C)C)co1` [Example 27, (2S,3S,5S)-5-(N-(N-((N-Methyl-N-((2-isopropyl-4-oxazolyl)methyl)amino)carbonyl)valinyl)amino)-2-(N-((5-isoxazolyl)methoxycarbonyl)amino)-1,6-diphenyl-3-hydroxyhexane]: the IC50 fell in the range of 11 to 12 nM.

Turning to `Cc1ncc(COC(=O)N[C@@H](Cc2ccccc2)[C@@H](O)C[C@H](Cc2ccccc2)NC(=O)[C@@H](NC(=O)N(C)Cc2csc(C(C)C)n2)C(C)C)s1` [Example 28, (2S,3S,5S)-5-(N-(N-((N-Methyl-N-((2-isopropyl-4-thiazolyl)methyl)amino)carbonyl)valinyl)amino)-2-(N-((2-methyl-5-thiazolyl)methoxycarbonyl)amino)-1,6-diphenyl-3-hydroxyhexane], the half-inhibitory concentration (IC50) was in the range of 110 to 120 nM.

Take `Cc1ncc(COC(=O)N[C@@H](Cc2ccccc2)C[C@H](O)[C@H](Cc2ccccc2)NC(=O)[C@@H](NC(=O)N(C)Cc2csc(C(C)C)n2)C(C)C)s1` [Example 39, (2S,3S,5S)-2-(N-(N-((N-Methyl-N-((2-isopropyl-4-thiazolyl)methyl)amino)carbonyl)valinyl)amino)-5-(N-((2-methyl-5-thiazolyl)methoxycarbonyl)amino)-1,6-diphenyl-3-hydroxyhexane]: the IC50 lay in the range of 73 to 77 nM.

As for `CCc1nc(CN(C)C(=O)N[C@H](C(=O)N[C@@H](Cc2ccccc2)C[C@H](O)[C@H](Cc2ccccc2)NC(=O)OCc2cncs2)C(C)C)co1` [Example 41, (2S,3S,5S)-5-(N-(N-((N-Methyl-N-((2-ethyl-4-oxazolyl)methyl)amino)carbonyl)valinyl)amino)-2-(N-((5-thiazolyl)methoxycarbonyl)amino)-1,6-diphenyl-3-hydroxyhexane], the IC50 fell in the range of 15 to 20 nM.

In the case of `Cc1nc(CN(C)C(=O)N[C@H](C(=O)N[C@@H](Cc2ccccc2)C[C@H](O)[C@H](Cc2ccccc2)NC(=O)OCc2cncs2)C(C)C)co1` [Example 42, (2S,3S,5S)-5-(N-(N-((N-Methyl-N-((2-methyl-4-oxazolyl)methyl)amino)carbonyl)valinyl)amino)-2-(N-((5-thiazolyl)methoxycarbonyl)amino)-1,6-diphenyl-3-hydroxyhexane], the IC50 was in the range of 73 to 80 nM.

Regarding `CCC(CC)c1nc(CN(C)C(=O)N[C@H](C(=O)N[C@@H](Cc2ccccc2)C[C@H](O)[C@H](Cc2ccccc2)NC(=O)OCc2cncs2)C(C)C)cs1` [Example 44, (2S,3S,5S)-5-(N-(N-((N-Methyl-N-((2-(3-pentyl)-4-thiazolyl)methyl)amino)carbonyl)valinyl)amino)-2-(N-((5-thiazolyl)methoxycarbonyl)amino)-1,6-diphenyl-3-hydroxyhexane], the IC50 is 120 to 160 nM.

In the case of `CC(C)c1nc(CCOC(=O)N[C@H](C(=O)N[C@@H](Cc2ccccc2)C[C@H](O)[C@H](Cc2ccccc2)NC(=O)OCc2cncs2)C(C)C)cs1` [Example 47, (2S,3S,5S)-5-(N-(N-((2-(2-Isopropyl-4-thiazolyl)ethoxy)carbonyl)valinyl)amino)-2-(N-((5-thiazolyl)methoxycarbonyl)amino)-1,6-diphenyl-3-hydroxyhexane], the IC50 was 9 to 24 nM.

On to `CC(C)[C@H](NC(=O)N(C)Cc1csc(C2CCC2)n1)C(=O)N[C@@H](Cc1ccccc1)C[C@H](O)[C@H](Cc1ccccc1)NC(=O)OCc1cncs1` [Example 52, (2S,3S,5S)-5-(N-(N-((N-Methyl-N-((2-cyclobutyl-4-thiazolyl)methyl)amino)carbonyl)valinyl)amino)-2-(N-((5-thiazolyl)methoxycarbonyl)amino)-1,6-diphenyl-3-hydroxyhexane], for which the IC50 was in the range of 35 to 42 nM.

The same assay, now with this note: concentration giving 50% inhibition of the cytopathic effect of HIV; HIV-13B in MT4 cells; read-out: IC50.
`CC(C)c1nc(CN(C)C(=O)N[C@@H](C)C(=O)N[C@@H](Cc2ccccc2)C[C@H](O)[C@H](Cc2ccccc2)NC(=O)OCc2cncs2)cs1` [Example 3, (2S.3S.5S)-5-(N-(N-((N-Methyl-N-((2-isopropyl-4-thiazolyl)methyl)amino)carbonyl)alaninyl)amino)-2-(N-((5-thiazolyl)methoxycarbonyl)amino)-1,6-diphenyl-3-hydroxyhexane]: the concentration for half-maximal inhibition (IC50) lay within 41 to 75 nM.

Turning to `CC(C)c1nc(CN(C)C(=O)N[C@H](C(=O)N[C@@H](Cc2ccccc2)C[C@H](O)[C@H](Cc2ccccc2)NC(=O)OCc2cnco2)C(C)C)cs1` [Example 20], the IC50 was in the range of 11 to 14 nM.

With `CC(C)[C@H](NC(=O)N(C)Cc1csc(C2CC2)n1)C(=O)N[C@@H](Cc1ccccc1)C[C@H](O)[C@H](Cc1ccccc1)NC(=O)OCc1cncs1` [Example 51], the IC50 was 45 to 49 nM.
